From ChEMBL document CHEMBL5038625, “Application of the dual-tail approach for the design and synthesis of novel Thiopyrimidine-Benzenesulfonamide hybrids as selective carbonic anhydrase inhibitors” (Eur J Med Chem, 2022)

Legend:
[1] = system: COLO 205; assay: Antiproliferative activity against human COLA 205 cells assessed as reduction in cell viability incubated for 24 hrs by sulforhodamine B assay; conditions: COLO 205, 24 h
[2] = system: SF-295; assay: Antiproliferative activity against human SF-295 cells assessed as cell growth inhibition at 10 uM incubated for 24 hrs by sulforhodamine B assay; type: functional; conditions: read-out: GI
[3] = system: SF-539; assay: Antiproliferative activity against human SF-539 cells assessed as cell growth inhibition at 10 uM incubated for 24 hrs by sulforhodamine B assay; type: functional; conditions: read-out: GI
[4] = system: IGROV-1; assay: Antiproliferative activity against human IGROV-1 cells assessed as cell growth inhibition at 10 uM incubated for 24 hrs by sulforhodamine B assay; type: functional; conditions: read-out: GI
[5] = system: Hs-578T; assay: Antiproliferative activity against human HS-578T cells assessed as cell growth inhibition at 10 uM incubated for 24 hrs by sulforhodamine B assay; type: functional; conditions: read-out: GI
[6] = system: MCF7; assay: Cell cycle arrest in human MCF7 cells assessed as accumulation at sub G1 phase incubated for 48 hrs by propidium iodide staining based flow cytometric analysis (reference value: 1.09 %); type: functional
[7] = system: OVCAR-4; assay: Antiproliferative activity against human OVCAR-4 cells assessed as cell growth inhibition at 10 uM incubated for 24 hrs by sulforhodamine B assay; type: functional; conditions: read-out: GI
[8] = system: SK-MEL-2; assay: Antiproliferative activity against human SK-MEL-2 cells assessed as cell growth inhibition at 10 uM incubated for 24 hrs by sulforhodamine B assay; type: functional; conditions: read-out: GI
[9] = system: LOX IMVI; assay: Antiproliferative activity against human LOX IMVI cells assessed as cell growth inhibition at 10 uM incubated for 24 hrs by sulforhodamine B assay; type: functional; conditions: read-out: GI
[10] = system: NCI-H23; assay: Antiproliferative activity against human NCI-H23 cells assessed as cell growth inhibition at 10 uM incubated for 24 hrs by sulforhodamine B assay; type: functional; conditions: read-out: GI
[11] = system: COLO 205; assay: Antiproliferative activity against human COLO 205 cells assessed as cell growth inhibition at 10 uM incubated for 24 hrs by sulforhodamine B assay; type: functional; conditions: read-out: GI
[12] = system: MDA-MB-231; assay: Antiproliferative activity against human MDA-MB-231 cells assessed as reduction in cell viability incubated for 24 hrs by sulforhodamine B assay; type: functional, cell-based; conditions: MDA-MB-231, 24 h
[13] = system: CAKI-1; assay: Antiproliferative activity against human CAKI-1 cells assessed as cell growth inhibition at 10 uM incubated for 24 hrs by sulforhodamine B assay; type: functional; conditions: read-out: GI
[14] = system: T47D; assay: Antiproliferative activity against human T47D cells assessed as cell growth inhibition at 10 uM incubated for 24 hrs by sulforhodamine B assay; type: functional; conditions: read-out: GI
[15] = system: A498; assay: Antiproliferative activity against human A498 cells assessed as cell growth inhibition at 10 uM incubated for 24 hrs by sulforhodamine B assay; type: functional; conditions: read-out: GI
[16] = system: RXF 393; assay: Antiproliferative activity against human RXF 393 cells assessed as cell growth inhibition at 10 uM incubated for 24 hrs by sulforhodamine B assay; type: functional; conditions: read-out: GI
[17] = system: SK-MEL-28; assay: Antiproliferative activity against human SK-MEL-28 cells assessed as cell growth inhibition at 10 uM incubated for 24 hrs by sulforhodamine B assay; type: functional; conditions: read-out: GI
[18] = system: U-251; assay: Antiproliferative activity against human U-251 cells assessed as cell growth inhibition at 10 uM incubated for 24 hrs by sulforhodamine B assay; type: functional; conditions: read-out: GI
[19] = system: SK-MEL-5; assay: Antiproliferative activity against human SK-MEL-5 cells assessed as cell growth inhibition at 10 uM incubated for 24 hrs by sulforhodamine B assay; type: functional; conditions: read-out: GI
[20] = system: T47D; assay: Antiproliferative activity against human T47D cells assessed as reduction in cell viability incubated for 24 hrs by sulforhodamine B assay; type: functional, cell-based
[21] = system: MDA-MB-231; assay: Cell cycle arrest in human MDA-MB-231 cells assessed as accumulation at G2 phase incubated for 48 hrs by propidium iodide staining based flow cytometric analysis (reference value: 20.65 %); type: functional
[22] = system: K562; assay: Antiproliferative activity against human K562 cells assessed as cell growth inhibition at 10 uM incubated for 24 hrs by sulforhodamine B assay; type: functional; conditions: read-out: GI
[23] = system: HL-60; assay: Antiproliferative activity against human HL-60 cells assessed as cell growth inhibition at 10 uM incubated for 24 hrs by sulforhodamine B assay; type: functional; conditions: read-out: GI
[24] = system: UACC-257; assay: Antiproliferative activity against human UACC-257 cells assessed as cell growth inhibition at 10 uM incubated for 24 hrs by sulforhodamine B assay; type: functional; conditions: read-out: GI
[25] = system: HCC 2998; assay: Antiproliferative activity against human HCC 2998 cells assessed as cell growth inhibition at 10 uM incubated for 24 hrs by sulforhodamine B assay; type: functional; conditions: read-out: GI
[26] = system: SN12C; assay: Antiproliferative activity against human SN12C cells assessed as cell growth inhibition at 10 uM incubated for 24 hrs by sulforhodamine B assay; type: functional; conditions: read-out: GI
[27] = system: ACHN; assay: Antiproliferative activity against human ACHN cells assessed as cell growth inhibition at 10 uM incubated for 24 hrs by sulforhodamine B assay; type: functional; conditions: read-out: GI
[28] = system: SW-620; assay: Antiproliferative activity against human SW-620 cells assessed as cell growth inhibition at 10 uM incubated for 24 hrs by sulforhodamine B assay; type: functional; conditions: read-out: GI
[29] = system: A549; assay: Antiproliferative activity against human A549 cells assessed as cell growth inhibition at 10 uM incubated for 24 hrs by sulforhodamine B assay; type: functional; conditions: read-out: GI
[30] = system: SK-OV-3; assay: Antiproliferative activity against human SK-OV-3 cells assessed as cell growth inhibition at 10 uM incubated for 24 hrs by sulforhodamine B assay; type: functional; conditions: read-out: GI
[31] = system: MCF7; assay: Induction of apoptosis in human MCF cells assessed as necrotic cells measured after 48 hrs by Annexin-V-FITC/propidium iodide staining based flow cytometry (reference value: 0.94%); type: functional
[32] = system: SF-268; assay: Antiproliferative activity against human SF-268 cells assessed as cell growth inhibition at 10 uM incubated for 24 hrs by sulforhodamine B assay; type: functional; conditions: read-out: GI
[33] = system: SK-OV-3; assay: Antiproliferative activity against human SK-OV-3 cells assessed as reduction in cell viability incubated for 24 hrs by sulforhodamine B assay; conditions: SK-OV-3, 24 h
[34] = system: HCT-116; assay: Antiproliferative activity against human HCT-116 cells assessed as reduction in cell viability incubated for 24 hrs by sulforhodamine B assay; conditions: HCT-116, 24 h
[35] = system: MCF7; assay: Antiproliferative activity against human MCF7 cells assessed as cell growth inhibition at 10 uM incubated for 24 hrs by sulforhodamine B assay; type: functional; conditions: read-out: GI
[36] = system: MCF7; assay: Induction of apoptosis in human MCF cells assessed as viable cells measured after 48 hrs by Annexin-V-FITC/propidium iodide staining based flow cytometry (reference value: 98.15%); type: functional
[37] = system: MCF7; assay: Antiproliferative activity against human MCF7 cells assessed as reduction in cell viability incubated for 24 hrs by sulforhodamine B assay; type: functional, cell-based; conditions: MCF7, 24 h
[38] = system: HT-29; assay: Antiproliferative activity against human HT-29 cells assessed as reduction in cell viability incubated for 24 hrs by sulforhodamine B assay; conditions: HT-29, 24 h
[39] = system: EKVX; assay: Antiproliferative activity against human EKVX cells assessed as cell growth inhibition at 10 uM incubated for 24 hrs by sulforhodamine B assay; type: functional; conditions: read-out: GI
[40] = system: NCI-H522; assay: Antiproliferative activity against human NCI-H522 cells assessed as cell growth inhibition at 10 uM incubated for 24 hrs by sulforhodamine B assay; type: functional; conditions: read-out: GI
[41] = system: MDA-MB-231; assay: Induction of apoptosis in human MDA-MB-231 cells assessed as necrotic cells measured after 48 hrs by Annexin-V-FITC/propidium iodide staining based flow cytometry (reference value: 1.13%); type: functional

## COc1ccc(OC)c(-c2nc(SCC(=O)c3ccc(Br)cc3)nc(Nc3ccc(S(N)(=O)=O)cc3)c2C#N)c1
[1]
  IC50: 13300 nM
[2]
  inhibition of growth at 10 µM: 66.9%
[3]
  inhibition of growth at 10 µM: 71.6%
[4]
  inhibition of growth at 10 µM: 45.3%
[5]
  inhibition of growth at 10 µM: 86.6%
[6]
  Activity: 35.5%
[7]
  inhibition of growth at 10 µM: 42.6%
[8]
  inhibition of growth at 10 µM: 69.6%
[9]
  inhibition of growth at 10 µM: 67.4%
[10]
  inhibition of growth at 10 µM: 41.6%
[11]
  inhibition of growth at 10 µM: 31.6%
[12]
  IC50: 2400 nM
[13]
  inhibition of growth at 10 µM: 65.6%
[14]
  inhibition of growth at 10 µM: 28.9%
[15]
  inhibition of growth at 10 µM: 73.6%
[16]
  inhibition of growth at 10 µM: 82.7%
[17]
  inhibition of growth at 10 µM: 42.3%
[18]
  inhibition of growth at 10 µM: 62.4%
[19]
  inhibition of growth at 10 µM: 44%
[20]
  IC50: 2400 nM
[21]
  Activity: 30.07%
[22]
  inhibition of growth at 10 µM: 77.5%
[23]
  inhibition of growth at 10 µM: 74.1%
[24]
  inhibition of growth at 10 µM: 43.1%
[25]
  inhibition of growth at 10 µM: 29.1%
[26]
  inhibition of growth at 10 µM: 50.9%
[27]
  inhibition of growth at 10 µM: 44.1%
[28]
  inhibition of growth at 10 µM: 64%
[29]
  inhibition of growth at 10 µM: 32.5%
[30]
  inhibition of growth at 10 µM: 20.1%
[31]
  Activity: 7.15%
[32]
  inhibition of growth at 10 µM: 43.3%
[33]
  IC50: 29900 nM
[34]
  IC50: 2500 nM
[35]
  inhibition of growth at 10 µM: 71.1%
[36]
  Activity: 88.17%
[37]
  IC50: 2500 nM
[38]
  IC50: 4300 nM
[39]
  inhibition of growth at 10 µM: 36.3%
[40]
  inhibition of growth at 10 µM: 52%
[41]
  Activity: 7.18%
